Read-outs that look alike come from different tables or passages of the source. * marks the point of attachment. Palmitoyl = CCCCCCCCCCCCCCCC(=O)*
How the values were obtained:
[1] = tested on: HUVECs; assay: HUVEC proliferation (CyQUANT-NF cell number); format: cell-based, human; conditions: 1 μM in EGM, 48 hours; untreated control 100.0%
Method: In vitro studies were performed using HUVECs, a primary endothelial cell that is VEGF-responsive and frequently used as a model endothelial cell for angiogenesis studies in vitro [31].
To evaluate proliferation, HUVECs were plated at 5000 per well in a 96 well plate. […] Additionally, unsupplemented growth media was used as a control. After 48 hours, cell number was quantified using CyQUANT-NF (Invitrogen) and a standard fluorescent microplate reader. Cell number is expressed relative to the group treated with unsupplemented growth media.

[2] = tested on: chicken chorioallantoic membrane (CAM); assay: Shell-less chicken chorioallantoic membrane (CAM) angiogenesis assay; format: in vivo; conditions: 2 mM in PBS dried on coverslip, three days following treatment; saline 132%
Text: An established assay reflecting in vivo angiogenesis, the chicken chorioallantoic membrane (CAM) assay, was used to evaluate the angiogenic potential of the VEGF-PA of the present examples. This assay utilizes the extra-embryonic allantois, a tissue derived from the mesoderm that develops into a densely vascularized membrane. A common deviation from the traditional assay is to remove the shell and conduct the assay on a shell-less embryo, termed the shell-less CAM assay, as we have performed here. Fertilized white leghorn chicken eggs (Phil's Fresh Eggs, Forreston, Ill.) were received and cultured in a temperature controlled, humidified egg incubator. On embryonic day 3, eggs were cracked within a sterile tissue culture hood into round 100 mm petri dishes. Fertilized embryos were then transferred to a water-jacketed CO2 incubator, set to 37.5° C., 1% CO2 and 100% relative humidity. On embryonic day 10, the material treatment was dissolved at 2 mM in PBS, evaporated onto the surface of a 5 mm round glass cover slip, and placed facing down on top of the CAM (n=16/group). Digital images were captured through the eyepiece of a Nikon stereomicroscope and vessel density was quantified by the number of intersections of vessel structures with the edge of the cover slip and expressed relative to the initial time-point. Images were captured daily, beginning at embryonic day 10 and culminating on embryonic day 13, the standard range over which the CAM assay is performed. Additionally, images were assessed qualitatively for morphological differences in the CAM vasculature including spoking, branching and leakage.

[3] = biological target: T1, VEGF receptor 2 (VEGFR2 or KDR) (Homo sapiens, UniProt P35968); assay: Sandwich ELISA of phosphorylated VEGFR2 in lysates of stimulated HUVEC; format: cell-based
T1 construct: host or cells: HUVEC
Method: (§1) Human umbilical vein endothelial cells (HUVECs) and complete endothelial cell growth media (EGM) were purchased (Genlantis, San Diego, Calif.), passaged two times following receipt, and cryo-preserved in media with 5% DMSO. Cells were thawed as needed and grown to confluence in a […] flasks (VWR Falcon) prior to plating for experiments.
(§2) Phosphorylation of both VEGFRI and VEGFR2 was assayed using commercially available assay kit (R&D Systems, Minneapolis, Minn.) following the recommended protocol. First, confluent HUVECs plated in 24 well plates were starved for 5 hours in serum-free defined media (SFDM, Genlantis) specifically designed to maintain cells in a growth factor-free setting for growth factor signaling and metabolic assays. Following starvation, the various treatments were dissolved in SFDM to a concentration of 1 μM. […] Cells were exposed to treatment for 2 minutes. To evaluate the time-course of phosphorylation the same protocol was followed and cells were exposed to VEGF-PA for 0, 1, 3, 5, 10, 15, 20, 25, 30, 40, 50, and 60 minutes.

[4] = tested on: HUVECs; assay: HUVEC survival after serum-starvation (Annexin V-PE apoptosis); format: cell-based, human; conditions: 1 μM in EBM, serum-starvation 24 hours; untreated 31.7%
Method: To evaluate cell survival, endothelial basal media (EBM) without growth factors (Lonza) was used to induce a serum-starvation. Cells were plated in 12 well plates and grown to confluence with standard growth media. […] Cells were grown in these conditions for 24 hours. Survival was quantified using Annexin V: PE staining with 7-AAD vital staining (BD Biosciences) following provided assay instructions and analyzed on a DakoCytomation CyAn. Survival was assessed by determining the fraction of cells that were apoptotic (Annexin V-PE positive).

[5] = tested on: ischemic hind-limb; assay: Murine hind-limb ischemia (HLI) model; format: in vivo, mice; conditions: for limb motor function score / tissue (limb) salvage score: single i.m. injection 25 μl of 2 mM; for limb motor function score: grade 1-5; for tissue (limb) salvage score: grade 1-6; for Rota Rod walking time prior to failure: saline 90.4 seconds; for number of CD31+ capillaries in ischemic limb muscle: tissue harvested at day 28, saline 893/mm2
Method: For the HLI procedure, eight week old male FVB wild-type mice (Charles River) were anesthetized by intraperitoneal injection of avertin (125 mg/kg). By means of a dissecting microscope, the femoral nerve was carefully separated from the vessel bundle. The right femoral artery was ligated and excised, including all superficial and deep branches. Critical limb ischemia was immediately verified by laser Doppler imaging (LDPI, MoorLDI-SIM, Moor Instruments, Ltd) to ensure the ratio (ischemic/non-ischemic limb) was ≦0.20. At postoperative day 3, outliers with low ischemia were triaged based on LDPI (ratio ischemic/nonischemic 0.30) as were outliers with extreme ischemia (necrotic demarcation of entire limb), determined by macroscopic evaluation. […] For follow-up, animals underwent reevaluations with LDPI at postoperative day 7, 14, and 28 before animals were sacrificed (CO, asphyxia) for tissue harvest at day 28. At each time-point, tissue perfusion was measured via LDPI, measuring blood flow in both the ischemic and non-ischemic limb and reporting results as the ratio of these two measurements. All LDPI measurements were taken on a 37° C. heating pad to control body temperature. In addition, motor function and tissue damage was semi-quantitatively assessed on post-operative day 7, 14, 21 and 28 by established scoring systems. Tissue damage in the ischemic limb (limb salvage score) was graded as full recovery (grade 6), minor necrosis or nail loss (grade 5), partial toe amputation (grade 4), total toe amputation (grade 3), partial/total foot amputation (grade 2) or partial/total limb amputation (grade 1) (modified from). Limb motor function was graded as unrestricted (grade 5), no active use of toe(s) or spreading (grade 4), restricted foot use (grade 3), no use of foot (grade 2) or no use of limb at all (grade 1) (modified from). Finally, walking capacity was measured via a Rota Rod apparatus. […] The mean of two assessments was used as for failure time for each animal. At day 28, muscle tissue from the ischemic limb was harvested, fixed in methanol, paraffin-embedded, and cross-sectioned (6-μm) for histological immunostaining. Briefly, sections were blocked with 10% donkey serum (30 min, RT). Primary antibodies were diluted in PBS containing BSA, and applied to tissue slices for 2 hrs at 37° C. Sections were stained for CD31, an endothelial-specific marker, using rat anti-CD31 antibodies (BD Pharmingen Inc) and smooth-muscle α-actin (αSMA), a vascular smooth muscle marker, using rabbit-anti-αSMA (Sigma-Aldrich Co.). For immunofluorescent detection, primary antibodies were resolved with Alexa-Fluor-conjugated secondary antibodies (Invitrogen Corporation, Carlsbad, Calif., USA dilution) and nuclei were counterstained with DAPI (Research Organics). Slides were imaged using fluorescent microscopy (Zeiss), and CD31+capillary forms and CD31+/sMA+]mature microvessels/arterioles were quantified in 3 separate high-power fields (20×) from 3 independent sections in each animal (9 images/animal). All error bars indicate the standard error of the mean. Differences between groups were determined using a one-way analysis of variance (ANOVA) with a Bonferroni multiple comparisons post-hoc test using GraphPad InStat v3.0b. […] VEGF-PA or control treatments were administered by an intramuscular injection three days following the induction of critical ischemia by ligation and excision of the right femoral artery and all superficial and deep branches, as described above. Animals were assessed serially throughout the study for motor function and limb salvage and Laser Doppler perfusion imaging (LDPI) was used to assess tissue perfusion. At the end of the study, exercise endurance was recorded on a Rota Rod treadmill and tissue was harvested for immunohistological staining of capillaries to observe effects on the microcirculation.

[6] = tested on: HUVECs; assay: HUVEC migration scratch assay; format: cell-based, human; conditions: 1 μM in EBM with 0.5% FBS, 18 hours; untreated 25.2%
Method: To evaluate cell migration, endothelial basal media (EBM) without growth factors (Lonza) was supplemented with 0.5% FBS in order to prevent apoptosis but not promote significant migration or proliferation. Cells were grown to confluence in a 12 well plate and a 1 ml pipette tip was used to create a denuded scratch and the surface was washed twice with PBS to remove detached cells. The average scratch width at the initial time-point was […] Markings were placed on the underside of the plate to ensure the same region of the scratch was recorded in each image. […] The total pixel area of the scratch at the initial time-point was recorded using ImageJ analysis software, and the percent migration was determined from the reduction in denuded area at 18 hours.

[7] = biological target: T2, VEGF receptor 1 (VEGFR1 or Flt-1) (Homo sapiens, UniProt P17948); assay: Sandwich ELISA of phosphorylated VEGFR1 in lysates of stimulated HUVEC; format: cell-based; conditions: HUVEC, native VEGF 100 ng/ml positive control, 2 minutes exposure
T2 construct: host or cells: HUVEC
Method: as §1, §2

[8] = HUVEC, 1 μM, 2 minutes exposure, untreated control 1.000±0.109
[9] = 14 days after induction of ischemia

T1 sequence (P35968 20-1356): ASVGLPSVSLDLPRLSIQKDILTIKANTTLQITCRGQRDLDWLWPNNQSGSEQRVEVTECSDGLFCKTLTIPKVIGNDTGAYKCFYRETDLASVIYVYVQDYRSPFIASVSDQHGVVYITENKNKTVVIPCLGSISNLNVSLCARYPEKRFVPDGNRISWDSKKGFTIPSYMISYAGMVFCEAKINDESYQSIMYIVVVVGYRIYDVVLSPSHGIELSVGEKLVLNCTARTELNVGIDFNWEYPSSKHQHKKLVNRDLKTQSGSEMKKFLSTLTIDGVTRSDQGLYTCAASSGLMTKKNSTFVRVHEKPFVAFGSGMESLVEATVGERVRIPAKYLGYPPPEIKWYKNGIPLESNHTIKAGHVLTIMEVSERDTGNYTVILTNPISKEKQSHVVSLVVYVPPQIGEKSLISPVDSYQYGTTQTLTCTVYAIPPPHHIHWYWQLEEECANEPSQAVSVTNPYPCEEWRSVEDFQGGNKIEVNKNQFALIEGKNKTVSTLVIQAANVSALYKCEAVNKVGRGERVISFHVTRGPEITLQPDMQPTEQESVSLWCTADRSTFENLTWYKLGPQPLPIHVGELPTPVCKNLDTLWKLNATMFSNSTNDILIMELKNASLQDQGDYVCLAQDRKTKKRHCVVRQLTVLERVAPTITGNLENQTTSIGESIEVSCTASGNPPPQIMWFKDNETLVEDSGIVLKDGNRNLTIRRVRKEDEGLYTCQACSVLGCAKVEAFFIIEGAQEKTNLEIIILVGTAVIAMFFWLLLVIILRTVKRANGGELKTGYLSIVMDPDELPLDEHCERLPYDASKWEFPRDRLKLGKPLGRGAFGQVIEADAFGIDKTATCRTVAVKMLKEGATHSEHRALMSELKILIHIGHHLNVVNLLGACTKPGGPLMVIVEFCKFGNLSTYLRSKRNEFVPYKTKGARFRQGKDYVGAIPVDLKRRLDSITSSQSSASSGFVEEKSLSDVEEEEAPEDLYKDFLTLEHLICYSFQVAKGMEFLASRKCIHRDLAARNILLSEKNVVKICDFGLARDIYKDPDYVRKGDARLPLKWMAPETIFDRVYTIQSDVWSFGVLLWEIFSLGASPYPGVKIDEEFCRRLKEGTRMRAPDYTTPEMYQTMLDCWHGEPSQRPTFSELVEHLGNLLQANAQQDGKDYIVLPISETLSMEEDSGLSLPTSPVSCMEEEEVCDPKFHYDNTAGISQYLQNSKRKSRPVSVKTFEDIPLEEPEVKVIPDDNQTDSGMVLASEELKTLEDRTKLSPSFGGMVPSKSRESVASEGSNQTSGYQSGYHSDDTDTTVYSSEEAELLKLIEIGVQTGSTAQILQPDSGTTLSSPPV
T2 sequence (P17948 27-1338): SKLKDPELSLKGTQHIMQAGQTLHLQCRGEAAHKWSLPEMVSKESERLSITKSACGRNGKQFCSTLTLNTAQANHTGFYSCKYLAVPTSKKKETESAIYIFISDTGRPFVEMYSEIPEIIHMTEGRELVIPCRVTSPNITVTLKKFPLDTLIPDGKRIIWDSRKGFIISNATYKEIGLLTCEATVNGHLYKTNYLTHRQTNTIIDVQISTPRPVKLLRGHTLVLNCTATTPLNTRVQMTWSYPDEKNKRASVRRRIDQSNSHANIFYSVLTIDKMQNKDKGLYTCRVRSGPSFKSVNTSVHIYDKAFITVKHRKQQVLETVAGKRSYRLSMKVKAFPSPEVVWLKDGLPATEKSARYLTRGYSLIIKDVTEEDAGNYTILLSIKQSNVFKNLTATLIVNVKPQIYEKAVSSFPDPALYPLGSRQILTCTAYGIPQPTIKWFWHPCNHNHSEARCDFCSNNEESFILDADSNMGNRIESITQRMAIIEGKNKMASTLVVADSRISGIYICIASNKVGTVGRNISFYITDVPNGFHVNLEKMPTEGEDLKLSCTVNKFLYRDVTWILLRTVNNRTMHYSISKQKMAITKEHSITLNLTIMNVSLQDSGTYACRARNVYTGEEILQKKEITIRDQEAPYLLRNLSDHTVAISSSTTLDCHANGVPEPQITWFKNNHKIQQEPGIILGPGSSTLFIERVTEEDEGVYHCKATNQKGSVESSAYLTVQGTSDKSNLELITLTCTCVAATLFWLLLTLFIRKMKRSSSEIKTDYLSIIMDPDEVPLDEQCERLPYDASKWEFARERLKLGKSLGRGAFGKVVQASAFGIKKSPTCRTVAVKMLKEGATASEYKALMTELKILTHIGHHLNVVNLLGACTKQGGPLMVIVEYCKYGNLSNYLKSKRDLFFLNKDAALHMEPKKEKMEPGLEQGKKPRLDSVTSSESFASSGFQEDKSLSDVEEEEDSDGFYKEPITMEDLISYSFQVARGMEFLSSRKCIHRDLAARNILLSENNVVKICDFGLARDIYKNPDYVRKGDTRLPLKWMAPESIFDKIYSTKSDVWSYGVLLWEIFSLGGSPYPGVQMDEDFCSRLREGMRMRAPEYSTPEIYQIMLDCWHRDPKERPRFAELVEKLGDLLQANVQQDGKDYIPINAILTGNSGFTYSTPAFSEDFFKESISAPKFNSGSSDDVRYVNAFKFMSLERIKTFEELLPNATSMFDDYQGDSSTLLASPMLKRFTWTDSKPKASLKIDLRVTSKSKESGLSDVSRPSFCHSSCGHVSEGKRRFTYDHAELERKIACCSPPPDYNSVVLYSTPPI

| Substance | proliferation (cell number relative to unsupplemented growth media) [1] | blood vessels relative to the initial value [2] | VEGFR2 phosphorylation level relative to untreated control [3, 8] | fraction of apoptotic cells (Annexin V-PE positive) [4] | LDPI perfusion ratio (ischemic/non-ischemic limb) [5, 9] | limb motor function score ([5]; day 21) | tissue (limb) salvage score ([5]; day 21) | LDPI perfusion ratio (ischemic/non-ischemic limb) ([5]; day 28) | Rota Rod walking time prior to failure ([5]; day 28) [s] | limb motor function score ([5]; day 28) | tissue (limb) salvage score ([5]; day 28) | number of CD31+ capillaries in ischemic limb muscle [5] | reduction in scratch wound size (denuded area) [6] | amount of phosphorylated VEGFR1, times untreated control [7] | VEGFR2 phosphorylation level relative to untreated control [3] |
| --- | --- | --- | --- | --- | --- | --- | --- | --- | --- | --- | --- | --- | --- | --- | --- |
| CH3(CH2)14C(O)—VVAAKKKGKLTAQELVFLKVKGI-NH2 (Palmitoyl-VVAAKKKGKLTAQELVFLKVKGI-NH2; SMILES CCCCCCCCCCCCCCCC(=O)N[C@H](C(=O)N[C@H](C(=O)N[C@@H](C)C(=O)N[C@@H](C)C(=O)N[C@@H](CCCCN)C(=O)N[C@@H](CCCCN)C(=O)N[C@@H](CCCCN)C(=O)NCC(=O)N[C@@H](CCCCN)C(=O)N[C@@H](CC(C)C)C(=O)N[C@H](C(=O)N[C@@H](C)C(=O)N[C@@H](CCC(N)=O)C(=O)N[C@@H](CCC(=O)O)C(=O)N[C@@H](CC(C)C)C(=O)N[C@H](C(=O)N[C@@H](Cc1ccccc1)C(=O)N[C@@H](CC(C)C)C(=O)N[C@@H](CCCCN)C(=O)N[C@H](C(=O)N[C@@H](CCCCN)C(=O)NCC(=O)N[C@H](C(N)=O)[C@@H](C)CC)C(C)C)C(C)C)[C@@H](C)O)C(C)C)C(C)C) [mutant PA] | 101.8%±1.4% | 149%±8% | 1.001±0.103 | 24.2%±1.1% | 0.42±0.05 | 2.86±0.14 | 3.14±0.26 | 0.48±0.05 | 106.7 ± 17.6 | 3.29±0.18 | 3.43±0.37 | 954±81 /mm2 | 30.0%±7.3% |  |  |
| VEGF |  |  |  |  |  |  |  |  |  |  |  |  |  | 1.306±0.044 | 1.311±0.106 |
| Ac-KLTWQELYQLKYKGI-NH2 [VEGF peptide] | 98.4%±0.7% | 139%±11% | 1.343±0.050 | 23.4%±1.1% | 0.54±0.06 | 3.41±0.21 | 3.45±0.25 | 0.52±0.06 | 115.6 ± 10.9 | 3.50±0.17 | 3.45±0.25 | 949±48 /mm2 | 52.5%±4.1% |  |  |

— US20130101628A1 (NORTHWESTERN UNIVERSITY, priority 2011, published 2013)
